Experimental data published in PubChem BioAssay AID1918941 (Molecular Pharmacology Branch, DTP, NCI, 2023).
Where “and” joins values, the source holds several entries; their conditions need not be identical. Equal entries are not always repeated.

These molecules were tested on SW 1271 complex spheroids, viability (assay: Anticancer human tumor SW 1271 cell line growth inhibition [LSD1]). Details: compound 0.000316 µM; stronger effect = lower value.
Description: Multicellular complex tumor spheroid response to LSD1 Inhibitor Iadademstat in combination with a variety of drugs and investigational agents in selected tumor cell lines
The current study was undertaken to assess response to LSD1 inhibitors in combination with standard-of-care drugs and investigational agents in solid tumor complex spheroid models as well as in the K-562 leukemia. Complex spheroids include a stromal component modeled by human endothelial cells (HUVEC) and fibroblasts modeled by human mesenchymal stem cells (MSCs). The concentration ranges selected for each drug and investigational agent were based upon clinically achievable concentrations if the clinical Cmax of the agent was known.
Compounds. The drugs and investigational agents used in this study are listed on Table 1. All of the agents used, including staurosporine (NSC755774) and gemcitabine (NSC613327), were obtained from the Developmental Therapeutics Program, NCI. FDA-approved anticancer drugs are available from the NCI at http://dtp.nci.nih.gov/branches/dscb/oncology_drugset_explanation.html. Drugs and investigational agents were >95% pure by proton nuclear magnetic resonance (NMR) and liquid chromatography/mass spectrometry (LC/MS). Stock solutions were prepared at 400x in DMSO, stored at -70 degrees C, and diluted in fresh medium prior to their use. The final concentration of DMSO in cell culture wells never exceeded 0.25% (v/v). The FDA-approved anticancer drug set is available from the Developmental Therapeutics Program at https://dtp.cancer.gov/organization/dscb/obtaining/available_plates.htm. All drugs and investigational agents were tested over a range starting from a high concentration at or near the clinical Cmax and decreasing in half-log increments. If the clinical Cmax for an agent had not been determined, the highest concentration tested was 10 microM.
Cell Lines. The patient-derived cancer cell (PDC) lines: 292921-168-R-J2-PDC, K24384-001-R-PDC, and 521955-158-R2-J5-PDC pancreatic carcinomas, 556581-035-R-J1 ovarian carcinoma, 324938-238-R-J1-PDC, 855422-203-R-J1-PDC and 883617-216-R-J1-PDC urothelial bladder carcinomas, 743489-274-T-PDC renal cell carcinoma, 138582-R-J1 Merkel cell tumor, K60290-347-R-J1 and K57222-313-R-J1-PDC glioblastomas, 653999-131-R-J2-PDC, LG0703-F948-PDC, and 349418-098-R-PDC non-small cell lung carcinomas, 885512-296-R-J2-PDC, 171881-019-R-J1-PDC breast carcinomas and 186277-243-T-J2-PDC and 233499-124-R-J2-PDC colon carcinomas were obtained from the NCI Patient-Derived Models Repository (PDMR, https://pdmr.cancer.gov). The established cell lines NCI/ADR-RES (RRID:CVCL_14520 and OVCAR-5 (RRID:CVCL_1628) ovarian carcinomas, 786-O (RRID:CVCL_1051) and A498 (RRID:CVCL_A498) renal cell carcinoma, NCI-H211 (ATCC, cat. CRL-5824; RRID:CVCL_1529), NCI-H196 (ATCC, cat. CRL-5823, RRID:CVCL_1509), SW 1271 (ATCC, cat. CRL-2177, RRID:CVCL_1716) and NCI-H1876 (ATCC, cat. CRL-5902, RRID:CVCL_1503) small cell lung carcinomas, MDA-MB-231 (RRID:CVCL_0062) and MDA-MB-468 (RRID:CVCL_0419)breast carcinomas (10-12). Pooled donor human umbilical vein endothelial cells (HUVEC, Lonza, cat. CC-2519) and human mesenchymal stem cells (hMSC, Lonza, cat. PT-2501) were purchased from Lonza (Walkersville, MD).
Cell Culture. All cells were maintained in an incubator at 37 degrees C and 5% CO2 with 95% humidity. The PDC lines were cultured according to standard operating procedures established by the NCI PDMR (https://pdmr.cancer.gov). Briefly all PDCs were thawed and cultured in Matrigel-coated flasks prepared with a working solution of 1X Ham's F-12 nutrient mix, without supplementation (Invitrogen, Waltham, MA, cat. 11765054), 100 U/mL penicillin-streptomycin (Invitrogen, cat. 15140122), and 2.5% Matrigel (Corning Inc., Corning, NY, cat. 354248) for the first three passages. […]
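Further: spheroids exposed to agents for 7 days before luminescence read; 100% = DMSO vehicle control viability.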

Structure (SMILES) | viability, T/C
CC(C)CC(NC(=O)C(Cc1ccccc1)NC(=O)c1cnccn1)B(O)O (configuration not stated) | 1.55% and 4.22%
CC(C)CC(NC(=O)CNC(=O)c1cc(Cl)ccc1Cl)B1OC(=O)CC(CC(=O)O)(C(=O)O)O1 (configuration not stated) | 99.2% and 97.3%
CC[C@@]1(O)C(=O)OCc2c1cc1n(c2=O)Cc2cc3c(CN(C)C)c(O)ccc3nc2-1 | 88.2% and 98.2%
Cn1ncnc1C1c2n[nH]c(=O)c3cc(F)cc(c23)NC1c1ccc(F)cc1 (configuration not stated) | 89.1% and 97.2%

Same assay, conditions: compound 0.000949 µM; stronger effect = lower value

Structure (SMILES) | viability, T/C
CCc1c2c(nc3ccc(O)cc13)-c1cc3c(c(=O)n1C2)COC(=O)[C@]3(O)CC | 57.8% and 46.7%
Nc1ccn(C2OC(CO)C(O)C2(F)F)c(=O)n1 (configuration not stated) | 73.7% and 82.6%
Nc1ncn(C2CC(O)C(CO)S2)c(=O)n1 (configuration not stated) | 105% and 83.6%

Same assay, conditions: compound 0.001 µM; stronger effect = lower value

Structure (SMILES) | viability, T/C
CC(C)CC(NC(=O)C(Cc1ccccc1)NC(=O)c1cnccn1)B(O)O (configuration not stated) | 0.42% and 0.29%
CC(C)CC(NC(=O)CNC(=O)c1cc(Cl)ccc1Cl)B1OC(=O)CC(CC(=O)O)(C(=O)O)O1 (configuration not stated) | 91.3% and 86.2%
CC[C@@]1(O)C(=O)OCc2c1cc1n(c2=O)Cc2cc3c(CN(C)C)c(O)ccc3nc2-1 | 89.6% and 109%
Cn1ncnc1C1c2n[nH]c(=O)c3cc(F)cc(c23)NC1c1ccc(F)cc1 (configuration not stated) | 94.9% and 81.7%

Same assay, conditions: compound 0.003 µM; stronger effect = lower value

Structure (SMILES) | viability, T/C
CCc1c2c(nc3ccc(O)cc13)-c1cc3c(c(=O)n1C2)COC(=O)[C@]3(O)CC | 55.8% and 41.6%
Nc1ccn(C2OC(CO)C(O)C2(F)F)c(=O)n1 (configuration not stated) | 73.8% and 71.3%
Nc1ncn(C2CC(O)C(CO)S2)c(=O)n1 (configuration not stated) | 112% and 88.6%

Same assay, conditions: compound 0.00316 µM; stronger effect = lower value

Structure (SMILES) | viability, T/C
CC(C)CC(NC(=O)C(Cc1ccccc1)NC(=O)c1cnccn1)B(O)O (configuration not stated) | 0.34% and 0.36%
CC(C)CC(NC(=O)CNC(=O)c1cc(Cl)ccc1Cl)B1OC(=O)CC(CC(=O)O)(C(=O)O)O1 (configuration not stated) | 74.4% and 88%
CC1COCCN1c1cc(-c2ccnn2C)c2ccnc(-c3ccn[nH]3)c2n1 (configuration not stated) | 72.4% and 71.8%
CC[C@@]1(O)C(=O)OCc2c1cc1n(c2=O)Cc2cc3c(CN(C)C)c(O)ccc3nc2-1 | 72.7% and 75.3%
COc1cc(Nc2ncc3c(n2)-c2ccc(Cl)cc2C(c2c(F)cccc2OC)=NC3)ccc1C(=O)O | 92.2% and 73.8%
Cn1ncnc1C1c2n[nH]c(=O)c3cc(F)cc(c23)NC1c1ccc(F)cc1 (configuration not stated) | 87.8% and 87%
Nc1ncn(C2CC(O)C(CO)O2)c(=O)n1 (configuration not stated) | 96% and 88.2%
O=C(C=Cn1cnc(-c2cc(C(F)(F)F)cc(C(F)(F)F)c2)n1)NNc1cnccn1 | 92% and 82.7%

Same assay, conditions: compound 0.00949 µM; stronger effect = lower value

Structure (SMILES) | viability, T/C
CCN(c1cc(-c2ccc(CN3CCOCC3)cc2)cc(C(=O)NCc2c(C)cc(C)[nH]c2=O)c1C)C1CCOCC1 | 98.8% and 104%
CCc1c2c(nc3ccc(O)cc13)-c1cc3c(c(=O)n1C2)COC(=O)[C@]3(O)CC | 23.3% and 28.8%
COc1cc(C2c3cc4c(cc3C(OC3OC5COC(C)OC5C(O)C3O)C3COC(=O)C23)OCO4)cc(OC)c1O (configuration not stated) | 84.9% and 100%
NS(=O)(=O)OCC1CC(n2ccc3c(NC4CCc5ccccc54)ncnc32)CC1O (configuration not stated) | 159% and 149%
Nc1ccccc1NC(=O)c1ccc(CNC(=O)OCc2cccnc2)cc1 | 90.7% and 84.4%
Nc1ccn(C2OC(CO)C(O)C2(F)F)c(=O)n1 (configuration not stated) | 64.3% and 67.8%
Nc1ncn(C2CC(O)C(CO)S2)c(=O)n1 (configuration not stated) | 99.5% and 86.3%
O=C(C=Cc1cccc(S(=O)(=O)Nc2ccccc2)c1)NO | 89.7% and 88.1%

Same assay, conditions: compound 0.01 µM; stronger effect = lower value

Structure (SMILES) | viability, T/C
CC(C)CC(NC(=O)C(Cc1ccccc1)NC(=O)c1cnccn1)B(O)O (configuration not stated) | 0.16% and 0.3%
CC(C)CC(NC(=O)CNC(=O)c1cc(Cl)ccc1Cl)B1OC(=O)CC(CC(=O)O)(C(=O)O)O1 (configuration not stated) | 6.54% and 16.7%
CC1COCCN1c1cc(-c2ccnn2C)c2ccnc(-c3ccn[nH]3)c2n1 (configuration not stated) | 72.6% and 63.3%
CC[C@@]1(O)C(=O)OCc2c1cc1n(c2=O)Cc2cc3c(CN(C)C)c(O)ccc3nc2-1 | 66.6% and 85.6%
COc1cc(Nc2ncc3c(n2)-c2ccc(Cl)cc2C(c2c(F)cccc2OC)=NC3)ccc1C(=O)O | 86.8% and 78.9%
Cn1ncnc1C1c2n[nH]c(=O)c3cc(F)cc(c23)NC1c1ccc(F)cc1 (configuration not stated) | 91.1% and 85%
Nc1ncn(C2CC(O)C(CO)O2)c(=O)n1 (configuration not stated) | 86.6% and 105%
